Test system: target DNA; 23-bp duplex DNA oligo (DNA, duplex) GCGAATAAGAGGAAGTGAAACCG/CGGTTTCACTTCCTCTTATTCGC
Assay: fluorescence polarization titration
Settings: 0.20 M NaCl; 10 mM TrisHCl, pH 7.5, 25°C, H2O, no osmolyte; apparent

N=C(N)c1ccc2[nH]c(-c3ccc(-c4nc5cc(C(=N)N)ccc5[nH]4)[se]3)nc2c1
−log (Kd, M): 9.90 ± 0.12 −log M

Source: publication PMC5607081 (2017)
